According to ChEMBL document CHEMBL1126482, “Novel Y2-selective, reduced-size agonists of neuropeptide Y” (Bioorg Med Chem Lett, 1993):
pIC50: −log10 of the molar value. Square brackets hold non-standard residues; d marks the D form. Peptide text beside a SMILES is read from it. Cha = N[C@@H](CC1CCCCC1)C(=O)O

Legend:
[1] = target: T1, Neuropeptide Y receptor type 1 (Homo sapiens, UniProt P25929); test: Compound was evaluated for its inhibitory activity against human neuropeptide Y1 receptor expressing SK-N-MC cells; assay type: cell-based
T1 sequence (P25929 whole entry): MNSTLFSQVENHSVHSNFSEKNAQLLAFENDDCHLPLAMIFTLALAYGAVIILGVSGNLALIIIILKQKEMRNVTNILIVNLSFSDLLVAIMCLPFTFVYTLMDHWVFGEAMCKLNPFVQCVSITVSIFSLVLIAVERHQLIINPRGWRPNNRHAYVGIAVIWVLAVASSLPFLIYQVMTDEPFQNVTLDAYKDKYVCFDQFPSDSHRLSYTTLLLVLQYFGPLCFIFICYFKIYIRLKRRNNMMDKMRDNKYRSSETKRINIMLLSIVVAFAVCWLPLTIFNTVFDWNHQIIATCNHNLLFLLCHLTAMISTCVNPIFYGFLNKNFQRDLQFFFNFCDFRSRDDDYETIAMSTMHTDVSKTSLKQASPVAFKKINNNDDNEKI

[2] = target: T2, Neuropeptide Y receptor type 2 (Homo sapiens, UniProt P49146); test: Compound was evaluated for its inhibitory activity against human neuropeptide Y2 receptor expressing LN319 cells; assay type: cell-based
T2 sequence (P49146 whole entry): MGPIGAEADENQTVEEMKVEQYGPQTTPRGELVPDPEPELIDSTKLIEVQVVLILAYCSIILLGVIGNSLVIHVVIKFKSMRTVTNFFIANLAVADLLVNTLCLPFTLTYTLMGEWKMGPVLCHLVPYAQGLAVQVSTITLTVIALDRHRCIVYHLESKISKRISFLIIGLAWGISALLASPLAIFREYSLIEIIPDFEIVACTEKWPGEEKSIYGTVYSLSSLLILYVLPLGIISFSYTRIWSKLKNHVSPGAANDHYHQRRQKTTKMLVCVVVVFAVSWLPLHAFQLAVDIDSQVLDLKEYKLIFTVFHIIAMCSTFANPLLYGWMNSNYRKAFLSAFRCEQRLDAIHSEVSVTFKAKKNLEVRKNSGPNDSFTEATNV

Rattus norvegicus = organism: Rattus norvegicus; test: Compound was evaluated for its ability to inhibit electrically evoked rat vas deferens contractions; assay type: functional

Compound	pIC50 ([1]; sk-n-mc)	pIC50 [2]	pIC50 [1]	pIC50 (Rattus norvegicus)
CC[C@H](C)[C@H](NC(=O)[C@H](Cc1ccc(O)cc1)NC(=O)[C@H](Cc1c[nH]cn1)NC(=O)[C@H](CCCN=C(N)N)NC(C)=O)C(=O)N[C@@H](CC(N)=O)C(=O)N[C@@H](CC(C)C)C(=O)N[C@@H](CC1CCCCC1)C(=O)N[C@H](C(=O)N[C@@H](CCCN=C(N)N)C(=O)N[C@@H](CCC(N)=O)C(=O)N[C@@H](CCCN=C(N)N)C(=O)N[C@@H](Cc1ccc(O)cc1)C(=O)O)[C@@H](C)O (Ac-RHYINL[Cha]TRQRY-OH)	7.41	8.30		
CC[C@H](C)[C@H](NC(=O)[C@H](Cc1ccc(O)cc1)NC(=O)[C@H](Cc1c[nH]cn1)NC(=O)[C@H](CCCN=C(N)N)NC(C)=O)C(=O)N[C@@H](CC(N)=O)C(=O)N[C@@H](CC1CCCCC1)C(=O)N[C@H](C(=O)N[C@H](C(=O)N[C@@H](CCCN=C(N)N)C(=O)N[C@@H](CCC(N)=O)C(=O)N[C@@H](CCCN=C(N)N)C(=O)N[C@@H](Cc1ccc(O)cc1)C(=O)O)[C@@H](C)O)[C@@H](C)CC (Ac-RHYIN[Cha]ITRQRY-OH)	4.36	8.10		
CC[C@H](C)[C@H](NC(=O)[C@H](Cc1ccc(O)cc1)NC(=O)[C@H](Cc1c[nH]cn1)NC(=O)[C@H](CCCN=C(N)N)NC(C)=O)C(=O)N[C@@H](CC(N)=O)C(=O)N[C@@H](CC1CCCCC1)C(=O)N[C@@H](CC1CCCCC1)C(=O)N[C@H](C(=O)N[C@@H](CCCN=C(N)N)C(=O)N[C@@H](CCC(N)=O)C(=O)N[C@@H](CCCN=C(N)N)C(=O)N[C@@H](Cc1ccc(O)cc1)C(=O)O)[C@@H](C)O (Ac-RHYIN[Cha][Cha]TRQRY-OH)	4.59	8.52		
Ac-RHYINLITRQRY-OH			4.46	5.35
